Assay results taken from patent publication US8558011B2, “Cold menthol receptor-1 antagonists” (Janssen Pharmaceutica, NV, priority 2010, dated 2013).
Where “and” joins values, the source holds several entries; their conditions need not be identical. Equal entries are not always repeated.

Target: T1, canine TRPM8 (Canis lupus familiaris, UniProt Q1A7N1)
T1 construct: expressed in transfected cells
Experiment: In Vitro Canine TRPM8 Functional Assay (Ca2+-sensitive fluorescent dye, icilin activation, FLIPR/FDSS)
Format: cell-based
Settings: HEK293 cells stably expressing canine TRPM8, icilin activation; for IC50: eight-point dose-response; for % I (0.5 μM): compound at 0.5 μM; for % I (1 μM): compound at 1 μM
Method: The functional activity of compounds of Formula (I) was determined by measuring changes in intracellular calcium concentration using a Ca^2+-sensitive fluorescent dye. The changes in fluorescent signal were monitored by a fluorescence plate reader, either a FLIPR™ (Molecular Devices) or FDSS (Hamamatsu).
HEK293 cells stably expressing canine TRPM8 were routinely grown as monolayers in Dulbecco's minimum essential medium supplemented with 10% FBS, 1 mM L-glutamine, 100 units/mL penicillin, 100 ug/mL streptomycin and 400 μg/mL G418. Cells were maintained in 5% CO2 at 37° C. At 24 hrs prior to assay, cells were seeded in clear-base poly-D-lysine coated 384-well plates (BD Biosciences, NJ, USA) at a density of 5,000 cells per well in culture medium and grown overnight in 5% CO2 at 37° C. On assay day, growth media was removed and cells were loaded with Calcium 3 Dye (Molecular Devices) for 35 min at 37° C., under 5% CO2 and then for 25 min at room temperature and atmosphere. Subsequently, cells were tested for agonist-induced increases in intracellular Ca^2+ levels using FLIPR™ or FDSS. Cells were challenged with a compound of Formula (I) (at varying concentrations) and intracellular Ca^2+ was measured for 5 min prior to the addition of icilin to all wells to achieve a final concentration which produces approximately an 80% maximal response.
Basal FI was subtracted prior to normalizing data to percent of maximal response. Curves were generated using the average of quadruplicate wells for each data point, were analyzed using nonlinear regression of either sigmoidal dose response or sigmoidal dose response (variable slope). Finally, the EC50 and IC50 values were calculated with the best-fit dose curve determined by GraphPad Prism.

T1 sequence (Q1A7N1 1-1104): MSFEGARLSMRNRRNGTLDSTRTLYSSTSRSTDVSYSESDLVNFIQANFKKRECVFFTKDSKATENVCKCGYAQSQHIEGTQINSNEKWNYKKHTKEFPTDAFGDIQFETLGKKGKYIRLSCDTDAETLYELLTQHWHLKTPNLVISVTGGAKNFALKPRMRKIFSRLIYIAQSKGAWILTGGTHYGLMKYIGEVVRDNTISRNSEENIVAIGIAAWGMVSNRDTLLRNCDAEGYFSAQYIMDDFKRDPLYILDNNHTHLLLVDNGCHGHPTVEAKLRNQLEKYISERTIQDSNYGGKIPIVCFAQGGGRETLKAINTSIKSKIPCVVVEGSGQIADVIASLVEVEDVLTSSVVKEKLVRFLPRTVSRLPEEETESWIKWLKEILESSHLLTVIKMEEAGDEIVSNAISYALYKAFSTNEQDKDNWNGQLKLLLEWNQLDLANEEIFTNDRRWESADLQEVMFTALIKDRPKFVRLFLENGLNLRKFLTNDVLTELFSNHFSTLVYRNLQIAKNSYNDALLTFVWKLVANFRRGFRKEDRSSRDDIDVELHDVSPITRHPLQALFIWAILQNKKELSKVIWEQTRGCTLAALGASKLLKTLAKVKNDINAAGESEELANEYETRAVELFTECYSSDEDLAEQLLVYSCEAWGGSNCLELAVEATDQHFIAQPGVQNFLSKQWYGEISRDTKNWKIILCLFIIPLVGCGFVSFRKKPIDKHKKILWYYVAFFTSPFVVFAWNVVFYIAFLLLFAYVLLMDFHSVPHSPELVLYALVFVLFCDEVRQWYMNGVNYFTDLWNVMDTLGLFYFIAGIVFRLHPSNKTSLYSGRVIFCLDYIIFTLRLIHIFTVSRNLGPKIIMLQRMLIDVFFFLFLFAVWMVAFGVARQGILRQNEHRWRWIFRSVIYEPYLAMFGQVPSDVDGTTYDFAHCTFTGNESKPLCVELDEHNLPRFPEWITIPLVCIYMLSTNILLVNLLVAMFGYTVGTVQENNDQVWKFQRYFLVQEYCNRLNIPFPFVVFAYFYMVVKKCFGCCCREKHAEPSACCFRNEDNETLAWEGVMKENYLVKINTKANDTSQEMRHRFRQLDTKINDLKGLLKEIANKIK

Row | Compound | IC50 | % I (0.5 μM) | % I (1 μM)
1 | CC(C)OP(=O)(OC(C)C)C(Cc1ccccc1C(F)(F)F)c1sc2ccccc2c1Cl (stereo not drawn) [Cpd 173] | 140 nM | 103% | –
2 | CC(C)OP(=O)(OC(C)C)C(Cc1c(F)c(F)c(O)c(F)c1F)c1sc2ccccc2c1Br (stereo not drawn) [Cpd 229] | 156 nM | 95% | –
3 | CCOP(=O)(OCC)C(Cc1cc(C(F)(F)F)ccc1F)c1sc2ccccc2c1Br (stereo not drawn) [Cpd 146] | 100 nM | 103% | –
4 | CCOP(=O)(OCC)C(Cc1ccc(F)c(F)c1)c1oc2ccccc2c1C (stereo not drawn) [Cpd 9, [2-(3,4-Difluoro-phenyl)-1-(3-methyl-benzofuran-2-yl)-ethyl]-phosphonic acid diethyl ester] | – | – | 100%
5 | CC(C)OP(=O)(OC(C)C)C(Cc1ccc(Cl)c(C(F)(F)F)c1)c1sc2ccccc2c1Cl (stereo not drawn) [Cpd 167] | 97 nM | 104% | –
6 | CCOP(=O)(OCC)C(Cc1cc(Cl)ccc1F)c1sc2ccccc2c1Cl (stereo not drawn) [Cpd 305] | 70 nM | 102% | –
7 | CCOP(=O)(OCC)C(Cc1ccc(F)c(F)c1)c1sc2cccc(F)c2c1C (stereo not drawn) [Cpd 3, [2-(3,4-Difluoro-phenyl)-1-(4-fluoro-3-methyl-benzo[b]-thiophene-2-yl)-ethyl]-phosphonic acid diethyl ester] | – | – | 100%
8 | CC(C)OP(=O)(OC(C)C)C(Cc1ccc(Cl)c(F)c1)c1sc2ccccc2c1Cl (stereo not drawn) [Cpd 302] | 79 nM | 103% | –
9 | CC(C)OP(=O)(OC(C)C)C(Cc1cc(Cl)ccc1F)c1sc2ccccc2c1Cl (stereo not drawn) [Cpd 303] | 49 nM | 102% | –
10 | CCOP(=O)(OCC)C(Cc1cccc(F)c1F)c1sc2ccccc2c1C (racemic) [Cpd 10] | 43 nM | – | 100%
11 | CC(C)OP(=O)(OC(C)C)C(Cc1ccc(F)cc1)c1sc2ccccc2c1Cl (stereo not drawn) [Cpd 306] | – | 101% and 102% | –
12 | CCOP(=O)(OCC)C(Cc1ccc(F)c(F)c1)c1sc2cccc(F)c2c1Br (stereo not drawn) [Cpd 224] | 44 nM | 102% | –
13 | CC(C)OP(=O)(OC(C)C)C(Cc1ccc(F)c(C(F)(F)F)c1)c1sc2cccc(F)c2c1Br (stereo not drawn) [Cpd 222] | 33 nM | 103% | –
14 | CC(C)OP(=O)(OC(C)C)C(Cc1cccc(OC(F)(F)F)c1)c1sc2ccccc2c1Cl (stereo not drawn) [Cpd 301] | 54 nM | 102% | –
15 | COc1ccc(CC(c2sc3ccccc3c2Br)P(=O)(OC(C)C)OC(C)C)c(F)c1 (stereo not drawn) [Cpd 163] | 20 nM | 103% | –
16 | CCOP(=O)(OCC)C(Cc1cc(O)c(Cl)cc1F)c1sc2ccccc2c1Br (stereo not drawn) [Cpd 231] | 122 nM | 98% | –
17 | CCOP(=O)(OCC)C(Cc1cccc(SC(F)(F)F)c1)c1sc2ccccc2c1Cl (stereo not drawn) [Cpd 296] | 137 nM | 102% | –
18 | CCOP(=O)(OCC)C(Cc1ccc(F)c(C(F)(F)F)c1)c1sc2ccccc2c1Cl (stereo not drawn) [Cpd 294] | 118 nM | 103% | –
19 | CC(C)OP(=O)(OC(C)C)C(Cc1ccc(C(F)(F)F)cc1F)c1sc2ccccc2c1Br (stereo not drawn) [Cpd 289] | 51 nM | 103% | –
20 | CCOP(=O)(OCC)C(Cc1cc(Cl)ccc1F)c1sc2ccccc2c1Br (stereo not drawn) [Cpd 307] | 26 nM | 103% | –
21 | COc1cc(CC(c2sc3ccccc3c2Br)P(=O)(OC(C)C)OC(C)C)ccc1F (stereo not drawn) [Cpd 157] | – | 103% | –
22 | CCOP(=O)(OCC)C(Cc1ccc(Cl)c(C(F)(F)F)c1)c1sc2ccccc2c1Cl (stereo not drawn) [Cpd 287] | 124 nM | 103% | –
23 | CCOP(=O)(OCC)C(Cc1ccc(F)cc1C(F)(F)F)c1sc2ccccc2c1Br (stereo not drawn) [Cpd 245] | 124 nM | 103% | –
24 | CC(C)OP(=O)(OC(C)C)C(Cc1cc(O)c(Cl)cc1F)c1sc2ccccc2c1Br (stereo not drawn) [Cpd 232] | 63 nM | 99% | –

Row | Compound | IC50 | % I (0.5 μM) | % I (1 μM)
25 | CCOP(=O)(OCC)C(Cc1cccc([N+](=O)[O-])c1)c1sc2ccccc2c1Br (stereo not drawn) [Cpd 315] | – | 103% | –
26 | CCOP(=O)(OCC)C(Cc1cccc(C(F)(F)F)c1Cl)c1sc2ccccc2c1Br (stereo not drawn) [Cpd 151] | 120 nM | 103% | –
27 | CCOP(=O)(Cc1cc2ccccc2s1)OCc1c(Cl)cccc1Cl (stereo not drawn) [Cpd 94, Benzo[b]thiophen-2-ylmethyl-phosphonic acid 2,6-dichloro-benzyl ester ethyl ester] | – | – | 79%
28 | CC(C)CCOP(=O)(OCCC(C)C)C(Cc1ccc(F)c(F)c1)c1sc2ccccc2c1Br (stereo not drawn) [Cpd 211] | 95 nM | 97% | –
29 | CC(C)OP(=O)(OC(C)C)C(Cc1ccc(F)c(F)c1)c1sc2ncccc2c1Br (stereo not drawn) [Cpd 207] | 51 nM | 99% | –
30 | CCOP(=O)(OCC)C(Cc1ccc(F)c(F)c1)c1sc2ncccc2c1Br (stereo not drawn) [Cpd 132, 1-[(3-Bromo-thieno[2,3-b]pyridin-2-yl)-2-(3,4-difluoro-phenyl)-ethyl]-phosphonic acid diethyl ester] | – | – | 102%
31 | CCOP(=O)(OCC)C(Cc1cccc(OC)c1F)c1sc2ccccc2c1Br (stereo not drawn) [Cpd 162] | 32 nM | 103% | –
32 | CCOP(=O)(OCC)C(Cc1ccc(F)c(C(F)(F)F)c1)c1sc2cccc(F)c2c1Br (stereo not drawn) [Cpd 223] | 52 nM | 102% | –
33 | CCOP(=O)(OCC)C(Cc1ccc(F)c(F)c1)c1sc2cccc(Cl)c2c1C (stereo not drawn) [Cpd 65, [1-(4-Chloro-3-methyl-benzo[b]thiophen-2-yl)-2-(3,4-difluoro-phenyl)-ethyl]-phosphonic acid diethyl ester] | – | – | 100%
34 | CCOP(=O)(OCC)C(Cc1ccc(SC(F)(F)F)cc1)c1sc2ccccc2c1Cl (stereo not drawn) [Cpd 283] | 125 nM | 103% | –
35 | CCOP(=O)(OCC)C(Cc1ccccc1Cl)c1sc2ccccc2c1C (racemic) [Cpd 48] | 169 nM | – | 100%
36 | CCOP(=O)(OCC)C(Cc1ccccc1C(F)(F)F)c1sc2ccccc2c1Cl (stereo not drawn) [Cpd 279] | 291 nM | 97% | –
37 | CCOP(=O)(OCC)C(Cc1ccc(F)c(F)c1)c1sc2cc(F)ccc2c1C (stereo not drawn) [Cpd 16, [2-(3,4-Difluoro-phenyl)-1-(6-fluoro-3-methyl-benzo[b]-thiophene-2-yl)-ethyl]-phosphonic acid diethyl ester] | – | – | 100%
38 | CCOP(=O)(OCC)C(Cc1ccc(OC(F)(F)F)c(Cl)c1)c1sc2ccccc2c1Br (stereo not drawn) [Cpd 149] | 60 nM | 103% | –
39 | COc1ccc(CC(c2sc3ccccc3c2Br)P(=O)(OC(C)C)OC(C)C)cc1F (stereo not drawn) [Cpd 159] | 36 nM | 103% | –
40 | CCOP(=O)(OCC)C(Cc1c(F)c(F)c(OC)c(F)c1F)c1sc2ccccc2c1Br (stereo not drawn) [Cpd 160] | 60 nM | 87% | –
41 | CCOP(=O)(OCC)C(Cc1c(F)c(F)c(O)c(F)c1F)c1sc2ccccc2c1Br (stereo not drawn) [Cpd 228] | 129 nM | 94% | –
42 | CC(C)OP(=O)(OC(C)C)C(Cc1ccc(F)c(F)c1)c1sc2ccccc2c1C1CCCC1 (racemic) [Cpd 38] | 140 nM | – | 99%
43 | CC(C)OP(=O)(OC(C)C)C(Cc1cc(Cl)ccc1F)c1sc2ccccc2c1Br (stereo not drawn) [Cpd 308] | 17 nM | 103% | –
44 | CCOP(=O)(OCC)C(Cc1cc(OC)c(Cl)cc1F)c1sc2ccccc2c1Br (stereo not drawn) [Cpd 164] | 82 nM | 94% | –
45 | CCOP(=O)(OCC)C(Cc1cccc(C(F)(F)F)c1F)c1sc2ccccc2c1Cl (stereo not drawn) [Cpd 281] | 131 nM | 102% | –
46 | CC(C)OP(=O)(OC(C)C)C(Cc1cccc(O)c1F)c1sc2ccccc2c1Br (stereo not drawn) [Cpd 230] | 10 nM | 97% | –
47 | CC(C)OP(=O)(OC(C)C)C(Cc1cccc(C(F)(F)F)c1F)c1sc2ccccc2c1Cl (stereo not drawn) [Cpd 168] | 76 nM | 104% | –
48 | CCOP(=O)(OCC)C(Cc1cccc(Br)c1)c1sc2ccccc2c1Br (stereo not drawn) [Cpd 295] | 31 nM and 16 nM | 102% and 103% | –
